{"source": "PubChem BioAssay (NCI)", "assay_in_all_cases": "NCI anticancer screen, dose series, 48 h", "key": {"[1]": {"system": "OVCAR-4 ovarian"}, "[2]": {"system": "UACC-62 melanoma"}, "[3]": {"system": "BT-549 breast"}, "[4]": {"system": "A498 renal"}, "[5]": {"system": "NCI-H460 lung"}, "[6]": {"system": "UO-31 renal"}, "[7]": {"system": "HCT-116 colon"}, "[8]": {"system": "IGROV1 ovarian"}, "[9]": {"system": "SNB-75 CNS"}, "[10]": {"system": "NCI/ADR-RES ovarian"}, "[11]": {"system": "RXF 393 renal"}, "[12]": {"system": "NCI-H23 lung"}, "[13]": {"system": "COLO 205 colon"}, "[14]": {"system": "TK-10 renal"}, "[15]": {"system": "CAKI-1 renal"}, "[16]": {"system": "SR leukemia"}, "[17]": {"system": "EKVX NSCLC"}, "[18]": {"system": "ACHN renal"}, "[19]": {"system": "K-562 leukemia"}, "[20]": {"system": "NCI-H226 lung"}, "[21]": {"system": "SF-268 CNS"}, "[22]": {"system": "HCC-2998 colon"}, "[23]": {"system": "SK-MEL-5 melanoma"}, "[24]": {"system": "MDA-MB-231 breast"}, "[25]": {"system": "DU-145 prostate"}, "[26]": {"system": "MOLT-4 leukemia"}, "[27]": {"system": "T-47D breast"}, "[28]": {"system": "UACC-257 melanoma"}, "[29]": {"system": "HT29 colon"}, "[30]": {"system": "HOP-92 NSCLC"}, "[31]": {"system": "KM12 colon"}, "[32]": {"system": "SF-539 CNS"}, "[33]": {"system": "RPMI-8226 leukemia"}, "[34]": {"system": "NCI-H522 lung"}, "[35]": {"system": "OVCAR-8 ovarian"}, "[36]": {"system": "SK-MEL-2 melanoma"}, "[37]": {"system": "MDA-N"}, "[38]": {"system": "SN12C renal"}, "[39]": {"system": "786-0 renal"}, "[40]": {"system": "HS 578T breast"}, "[41]": {"system": "OVCAR-3 ovarian"}, "[42]": {"system": "LOX IMVI melanoma"}, "[43]": {"system": "MCF7 breast"}, "[44]": {"system": "U251 CNS"}, "[45]": {"system": "MALME-3M melanoma"}, "[46]": {"system": "PC-3 prostate"}, "[47]": {"system": "HCT-15 colon"}, "[48]": {"system": "CCRF-CEM leukemia"}, "[49]": {"system": "SW-620 colon"}, "[50]": {"system": "HL-60(TB) leukemia"}, "[51]": {"system": "SK-MEL-28 melanoma"}, "[52]": {"system": "OVCAR-5 ovarian"}, "[53]": {"system": "A549 NSCLC"}, "[54]": {"system": "HOP-62 NSCLC"}, "[55]": {"system": "SF-295 CNS"}, "[56]": {"system": "MDA-MB-435"}, "[57]": {"system": "SK-OV-3 ovarian"}, "[58]": {"system": "SNB-19 CNS"}, "[59]": {"system": "M19-MEL melanoma"}, "[60]": {"system": "LXFL 529 NSCLC"}, "[61]": {"system": "DLD-1 colon"}, "[62]": {"system": "HOP-18 NSCLC"}}, "note": "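Results reflect a 48-hour exposure of cells in 96-well plates to compound at five concentrations. The concentration for full growth arrest is given as TGI.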", "data": [{"smiles": "CC1(C)NC2C(=O)c3c([nH]c4ccccc34)[C@]3(C)CCC1CC23", "note": "(stereo not given in full)", "values": [{"measurement": "TGI", "setting": "[1]", "result": "> 100", "unit": "µM"}, {"measurement": "TGI", "setting": "[2]", "result": "> 100", "unit": "µM"}, {"measurement": "TGI", "setting": "[3]", "result": "> 100", "unit": "µM"}, {"measurement": "TGI", "setting": "[4]", "result": "> 100", "unit": "µM"}, {"measurement": "TGI", "setting": "[5]", "result": "> 100", "unit": "µM"}, {"measurement": "TGI", "setting": "[6]", "result": "> 100", "unit": "µM"}, {"measurement": "TGI", "setting": "[7]", "result": "> 100", "unit": "µM"}, {"measurement": "TGI", "setting": "[8]", "result": "> 100", "unit": "µM"}, {"measurement": "TGI", "setting": "[9]", "result": "> 100", "unit": "µM"}, {"measurement": "TGI", "setting": "[10]", "result": "> 100", "unit": "µM"}, {"measurement": "TGI", "setting": "[11]", "result": "> 100", "unit": "µM"}, {"measurement": "TGI", "setting": "[12]", "result": "> 100", "unit": "µM"}, {"measurement": "TGI", "setting": "[13]", "result": "> 100", "unit": "µM"}, {"measurement": "TGI", "setting": "[14]", "result": "> 100", "unit": "µM"}, {"measurement": "TGI", "setting": "[15]", "result": "> 100", "unit": "µM"}, {"measurement": "TGI", "setting": "[16]", "result": "> 100", "unit": "µM"}, {"measurement": "TGI", "setting": "[17]", "result": "> 100", "unit": "µM"}, {"measurement": "TGI", "setting": "[18]", "result": "> 100", "unit": "µM"}, {"measurement": "TGI", "setting": "[19]", "result": "> 100", "unit": "µM"}, {"measurement": "TGI", "setting": "[20]", "result": "> 100", "unit": "µM"}, {"measurement": "TGI", "setting": "[21]", "result": "> 100", "unit": "µM"}, {"measurement": "TGI", "setting": "[22]", "result": "> 100", "unit": "µM"}, {"measurement": "TGI", "setting": "[23]", "result": "> 100", "unit": "µM"}, {"measurement": "TGI", "setting": "[24]", "result": "> 100", "unit": "µM"}, {"measurement": "TGI", "setting": "[25]", "result": "> 100", "unit": "µM"}, {"measurement": "TGI", "setting": "[26]", "result": "> 100", "unit": "µM"}, {"measurement": "TGI", "setting": "[27]", "result": 90.8, "unit": "µM"}, {"measurement": "TGI", "setting": "[28]", "result": "> 100", "unit": "µM"}, {"measurement": "TGI", "setting": "[29]", "result": "> 100", "unit": "µM"}, {"measurement": "TGI", "setting": "[30]", "result": "> 100", "unit": "µM"}, {"measurement": "TGI", "setting": "[31]", "result": "> 100", "unit": "µM"}, {"measurement": "TGI", "setting": "[32]", "result": "> 100", "unit": "µM"}, {"measurement": "TGI", "setting": "[33]", "result": "> 100", "unit": "µM"}, {"measurement": "TGI", "setting": "[34]", "result": "> 100", "unit": "µM"}, {"measurement": "TGI", "setting": "[35]", "result": "> 100", "unit": "µM"}, {"measurement": "TGI", "setting": "[36]", "result": "> 100", "unit": "µM"}, {"measurement": "TGI", "setting": "[37]", "result": "> 100", "unit": "µM"}, {"measurement": "TGI", "setting": "[38]", "result": "> 100", "unit": "µM"}, {"measurement": "TGI", "setting": "[39]", "result": "> 100", "unit": "µM"}, {"measurement": "TGI", "setting": "[40]", "result": "> 100", "unit": "µM"}, {"measurement": "TGI", "setting": "[41]", "result": "> 100", "unit": "µM"}, {"measurement": "TGI", "setting": "[42]", "result": "> 100", "unit": "µM"}, {"measurement": "TGI", "setting": "[43]", "result": "> 100", "unit": "µM"}, {"measurement": "TGI", "setting": "[44]", "result": "> 100", "unit": "µM"}, {"measurement": "TGI", "setting": "[45]", "result": "> 100", "unit": "µM"}, {"measurement": "TGI", "setting": "[46]", "result": "> 100", "unit": "µM"}, {"measurement": "TGI", "setting": "[47]", "result": "> 100", "unit": "µM"}, {"measurement": "TGI", "setting": "[48]", "result": "> 100", "unit": "µM"}, {"measurement": "TGI", "setting": "[49]", "result": "> 100", "unit": "µM"}, {"measurement": "TGI", "setting": "[50]", "result": "> 100", "unit": "µM"}, {"measurement": "TGI", "setting": "[51]", "result": "> 100", "unit": "µM"}, {"measurement": "TGI", "setting": "[52]", "result": "> 100", "unit": "µM"}, {"measurement": "TGI", "setting": "[53]", "result": "> 100", "unit": "µM"}, {"measurement": "TGI", "setting": "[54]", "result": "> 100", "unit": "µM"}, {"measurement": "TGI", "setting": "[55]", "result": "> 100", "unit": "µM"}, {"measurement": "TGI", "setting": "[56]", "result": "> 100", "unit": "µM"}]}, {"smiles": "COc1cc(C2C(Cl)C(=O)N2NC(=O)c2ccc(NC(C)=O)cc2)cc(OC)c1OC", "note": "(stereo not given)", "values": [{"measurement": "TGI", "setting": "[2]", "result": "> 100", "unit": "µM"}, {"measurement": "TGI", "setting": "[5]", "result": "> 100", "unit": "µM"}, {"measurement": "TGI", "setting": "[6]", "result": "> 100", "unit": "µM"}, {"measurement": "TGI", "setting": "[7]", "result": "> 100", "unit": "µM"}, {"measurement": "TGI", "setting": "[8]", "result": "> 100", "unit": "µM"}, {"measurement": "TGI", "setting": "[9]", "result": "> 100", "unit": "µM"}, {"measurement": "TGI", "setting": "[12]", "result": "> 100", "unit": "µM"}, {"measurement": "TGI", "setting": "[13]", "result": "> 100", "unit": "µM"}, {"measurement": "TGI", "setting": "[14]", "result": "> 100", "unit": "µM"}, {"measurement": "TGI", "setting": "[19]", "result": "> 100", "unit": "µM"}, {"measurement": "TGI", "setting": "[20]", "result": "> 100", "unit": "µM"}, {"measurement": "TGI", "setting": "[21]", "result": "> 100", "unit": "µM"}, {"measurement": "TGI", "setting": "[57]", "result": "> 100", "unit": "µM"}, {"measurement": "TGI", "setting": "[23]", "result": "> 100", "unit": "µM"}, {"measurement": "TGI", "setting": "[26]", "result": "> 100", "unit": "µM"}, {"measurement": "TGI", "setting": "[58]", "result": "> 100", "unit": "µM"}, {"measurement": "TGI", "setting": "[28]", "result": "> 100", "unit": "µM"}, {"measurement": "TGI", "setting": "[29]", "result": "> 100", "unit": "µM"}, {"measurement": "TGI", "setting": "[30]", "result": "> 100", "unit": "µM"}, {"measurement": "TGI", "setting": "[31]", "result": "> 100", "unit": "µM"}, {"measurement": "TGI", "setting": "[59]", "result": "> 100", "unit": "µM"}, {"measurement": "TGI", "setting": "[60]", "result": "> 100", "unit": "µM"}, {"measurement": "TGI", "setting": "[32]", "result": "> 100", "unit": "µM"}, {"measurement": "TGI", "setting": "[33]", "result": "> 100", "unit": "µM"}, {"measurement": "TGI", "setting": "[34]", "result": "> 100", "unit": "µM"}, {"measurement": "TGI", "setting": "[36]", "result": "> 100", "unit": "µM"}, {"measurement": "TGI", "setting": "[61]", "result": "> 100", "unit": "µM"}, {"measurement": "TGI", "setting": "[41]", "result": "> 100", "unit": "µM"}, {"measurement": "TGI", "setting": "[44]", "result": "> 100", "unit": "µM"}, {"measurement": "TGI", "setting": "[45]", "result": "> 100", "unit": "µM"}, {"measurement": "TGI", "setting": "[62]", "result": "> 100", "unit": "µM"}, {"measurement": "TGI", "setting": "[48]", "result": "> 100", "unit": "µM"}, {"measurement": "TGI", "setting": "[49]", "result": "> 100", "unit": "µM"}, {"measurement": "TGI", "setting": "[50]", "result": "> 100", "unit": "µM"}, {"measurement": "TGI", "setting": "[51]", "result": "> 100", "unit": "µM"}, {"measurement": "TGI", "setting": "[52]", "result": "> 100", "unit": "µM"}, {"measurement": "TGI", "setting": "[53]", "result": "> 100", "unit": "µM"}, {"measurement": "TGI", "setting": "[54]", "result": "> 100", "unit": "µM"}, {"measurement": "TGI", "setting": "[55]", "result": "> 100", "unit": "µM"}]}]}
